From patent US10111874B2, “Combination therapies for treatment of cancer” (Araxes Pharma LLC, priority 2014, dated 2018)

target: T1, KRAS G12C 1-169, his-tagged protein, GDP-loaded (Homo sapiens, UniProt P01116, G12C); test: Biochemical assay: covalent binding to KRAS G12C analyzed by mass spectrometry; conditions: compounds 1-47, measured at 24 h; also: test concentration or dose not given here
T1 construct: KRAS G12C 1-169, his-tagged protein, GDP-loaded
T1 sequence (P01116 1-169 isoform P01116-2 G12C): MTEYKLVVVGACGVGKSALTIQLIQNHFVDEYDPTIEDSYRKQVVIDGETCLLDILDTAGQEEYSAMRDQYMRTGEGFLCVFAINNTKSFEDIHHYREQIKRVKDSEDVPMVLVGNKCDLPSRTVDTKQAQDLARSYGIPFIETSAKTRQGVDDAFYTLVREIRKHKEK

| SMILES | Binding % |
| --- | --- |
| C=CC(=O)N1CCN(c2ncnc3cc(Cl)c(-c4ccc(Cl)cc4)cc23)CC1CO (centres unmarked) [Compound I-46, 1-(4-(7-chloro-6-(4-chlorophenyl)quinazolin-4-yl)-2-(hydroxymethyl)piperazin-1-yl)prop-2-en-1-one] | ++++ (++++indicates binding activity greater than 75%) |
| C=CC(=O)N1CCN(c2ncnc3cc(Cl)c(-c4ccc(O)cc4)cc23)CC1 [Compound I-12, 1-(4-(7-chloro-6-(4-hydroxyphenyl)quinazolin-4-yl)piperazin-1-yl)prop-2-en-1-one] | + (+indicates binding activity from 5% to 25%) |
| C=CC(=O)N1CCC(c2ncnc3cc(Cl)c(-c4ccccc4Cl)cc23)CC1 [Compound I-36, 1-(4-(7-chloro-6-(2-chlorophenyl)quinazolin-4-yl)piperidin-1-yl)prop-2-en-1-one] | + (+indicates binding activity from 5% to 25%) |

same assay, conditions: compounds 48-246, measured at 2 h

| SMILES | Binding % |
| --- | --- |
| C=CC(=O)N1CCN(c2ncnc3cc(-c4c(F)cccc4F)c(Cl)cc23)CC1 [Compound I-132, 1-(4-(6-chloro-7-(2,6-difluorophenyl)quinazolin-4-yl)piperazin-1-yl)prop-2-en-1-one] | +++ (+++indicates binding activity greater than 50% and up to 75%) |
| C#CC1CN(c2ncnc3cc(-c4ccc(F)cc4F)c(Cl)cc23)CCN1C(=O)C=C (centres unmarked) [Compound I-195, 1-(4-(6-chloro-7-(2,4-difluorophenyl)quinazolin-4-yl)-2-ethynylpiperazin-1-yl)prop-2-en-1-one] | ++++ (++++indicates binding activity greater than 75%) |
| C=CC(=O)N1CCN(c2ncnc3cc(-c4c(C)ccc5[nH]ncc45)c(Cl)cc23)CC1 [Compound I-140, 1-(4-(6-chloro-7-(5-methyl-1H-indazol-4-yl)quinazolin-4-yl)piperazin-1-yl)prop-2-en-1-one] | +++ (+++indicates binding activity greater than 50% and up to 75%) |
| C=CC(=O)N1CCN(c2ncnc3cc(-c4cccc5c4CCCN5)c(Cl)cc23)CC1 [Compound I-223, 1-(4-(6-chloro-7-(1,2,3,4-tetrahydroquinolin-5-yl)quinazolin-4-yl)piperazin-1-yl)prop-2-en-1-one] | + (+indicates binding activity from 5% to 25%) |
| C=CC(=O)N1CCN(c2ncnc3ccccc23)CC1C#N (centres unmarked) [Compound I-57, 1-acryloyl-4-(quinazolin-4-yl)piperazine-2-carbontrile] | + (+indicates binding activity from 5% to 25%) |
| C=CC(=O)N1CCN(c2ncnc3cc(-c4ccc5oc(N)nc5c4)c(Cl)cc23)CC1 [Compound I-164, 1-(4-(7-(2-aminobenzo[d]oxazol-5-yl)-6-chloroquinazolin-4-yl)piperazin-1-yl)prop-2-en-1-one] | + (+indicates binding activity from 5% to 25%) |
| C=CC(=O)N1CCN(c2ncnc3cc(-c4ccc5cn[nH]c5c4)c(Cl)cc23)CC1 [Compound I-162, 1-(4-(6-chloro-7-(1H-indazol-6-yl)quinazolin-4-yl)piperazin-1-yl)prop-2-en-1-one] | + (+indicates binding activity from 5% to 25%) |
| C=CC(=O)N1CCN(c2ncnc3cc(-c4ccccc4C(F)(F)F)sc23)CC1 [Compound I-166, 1-(4-(6-(2-(trifluoromethyl)phenyl)thieno[3,2-d]pyrimidin-4-yl)piperazin-1-yl)prop-2-en-1-one] | + (+indicates binding activity from 5% to 25%) |
| C=CC(=O)N1CCN(c2ncnc3cc(-c4ccc(F)cc4C(N)=O)c(Cl)cc23)CC1 [Compound I-193, 2-(4-(4-acryloylpiperazin-1-yl)-6-chloroquinazolin-7-yl)-5-fluorobenzamide] | ++ (++indicates binding activity greater than 25% and up to 50%) |
| C=CC(=O)N1CCN(c2ncnc3ccc(-c4ccc(Cl)cc4)cc23)CC1 [Compound I-71, 1-(4-(6-(4-chlorophenyl)quinazolin-4-yl)piperazin-1-yl)prop-2-en-1-one] | + (+indicates binding activity from 5% to 25%) |
| C=CC(=O)N1CCN(c2ncnc3cc(Oc4ccccc4)c(Cl)cc23)CC1 [Compound I-76, 1-(4-(6-chloro-7-phenoxyquinazolin-4-yl)piperazin-1-yl)prop-2-en-1-one] | + (+indicates binding activity from 5% to 25%) |
| C=CC(=O)N1CCN(c2ncnc3cc(-c4ccccc4-c4cncs4)c(Cl)cc23)CC1 [Compound I-187, 1-(4-(6-chloro-7-(2-(thiazol-5-yl)phenyl)quinazolin-4-yl)piperazin-1-yl)prop-2-en-1-one] | +++ (+++indicates binding activity greater than 50% and up to 75%) |
| C=CC(=O)N1CCN(c2ncnc3cc(-c4ccccc4C(F)(F)F)c(Cl)cc23)CC1C (centres unmarked) [Compound I-124, 1-(4-(6-chloro-7-(2-(trifluoromethyl)phenyl)quinazolin-4-yl)-2-methylpiperazin-1-yl)prop-2-en-1-one] | +++ (+++indicates binding activity greater than 50% and up to 75%) |
| C=CC(=O)N1CCN(c2ncnc3cc(-c4cccc5ncccc45)c(Cl)cc23)CC1 [Compound I-135, 1-(4-(6-chloro-7-(quinolin-5-yl)quinazolin-4-yl)piperazin-1-yl)prop-2-en-1-one] | + (+indicates binding activity from 5% to 25%) |
| C=CC(=O)N1CCN(c2ncnc3cc(-c4ccccc4CO)c(Cl)cc23)CC1 [Compound I-108, 1-(4-(6-chloro-7-(2-(hydroxymethyl)phenyl)quinazolin-4-yl)piperazin-1-yl)prop-2-en-1-one] | ++ (++indicates binding activity greater than 25% and up to 50%) |
| C=CC(=O)N1CCN(c2cnnc3cc(-c4ccccc4C(F)(F)F)c(Cl)cc23)CC1 [Compound I-225, 1-(4-(6-chloro-7-(2-(trifluoromethyl)phenyl)cinnolin-4-yl)piperazin-1-yl)prop-2-en-1-one] | ++ (++indicates binding activity greater than 25% and up to 50%) |
| C=CC(=O)N1CCN(c2nc(C)nc3cc(Cl)c(-c4ccc(Cl)cc4)cc23)CC1C#N (centres unmarked) [Compound I-56, 1-acryloyl-4-(7-chloro-6-(4-chlorophenyl)-2-methylquinazolin-4-yl)piperazine-2-carbonitrile] | ++++ (++++indicates binding activity greater than 75%) |
| C#Cc1ccccc1-c1cc2ncnc(N3CCN(C(=O)C=C)CC3)c2cc1Cl [Compound I-154, 1-(4-(6-chloro-7-(2-ethynylphenyl)quinazolin-4-yl)piperazin-1-yl)prop-2-en-1-one] | ++ (++indicates binding activity greater than 25% and up to 50%) |

same assay, conditions: compounds 247-342, measured at 30 min

| SMILES | Binding % |
| --- | --- |
| C=CC(=O)N1CCN(c2c(C#N)cnc3c(F)c(-c4c(C)ccc5cn[nH]c45)c(Cl)cc23)CC1 [Compound 308, 4-(4-acryloylpiperazin-1-yl)-6-chloro-8-fluoro-7-(6-methyl-1H-indazol-7-yl)quinoline-3-carbonitrile] | +++ (+++indicates binding activity greater than 50% and up to 75%) |
| C=CC(=O)N1CCN(c2nc(OCCCN(C)C)nc3cc(-c4c(C)ccc5[nH]ncc45)c(Cl)cc23)CC1 [Compound 329, 1-(4-(6-chloro-2-(3-(dimethylamino)propoxy)-7-(5-methyl-1H-indazol-4-yl)quinazolin-4-yl)piperazin-1-yl)prop-2-en-1-one] | ++ (++indicates binding activity greater than 25% and up to 50%) |
| C=CC(=O)N1CCN(c2ncnc3c(F)c(-c4cc(-c5c[nH]cn5)ccc4F)c(Cl)cc23)CC1 [Compound I-281, 1-(4-(6-chloro-8-fluoro-7-(2-fluoro-5-(1H-imidazol-4-yl)phenyl)quinazolin-4-yl)piperazin-1-yl)prop-2-en-1-one] | ++ (++indicates binding activity greater than 25% and up to 50%) |
| C=CC(=O)N1CCN(c2ncnc3cc(-c4cc(OC)cc5ccccc45)c(Cl)cc23)CC1 [Compound I-249, 1-(4-(6-chloro-7-(3-methoxynaphthalen-1-yl)quinazolin-4-yl)piperazin-1-yl)prop-2-en-1-one] | + (+indicates binding activity from 5% to 25%) |
| C=CC(=O)N1CCN(c2ncnc3c(F)c(-c4cc(C(F)F)cc5ccccc45)c(Cl)cc23)CC1 [Compound 337] | + (+indicates binding activity from 5% to 25%) |
| C=CC(=O)N1CCN(c2ncnc3c(F)c(-c4c(C)cccc4Cl)c(Cl)cc23)CC1 [Compound I-290, 1-(4-(6-chloro-7-(2-chloro-6-methylphenyl)-8-fluoroquinazolin-4-yl)piperazin-1-yl)prop-2-en-1-one] | +++ (+++indicates binding activity greater than 50% and up to 75%) |
| C=CC(=O)N1CCN(c2ncnc3cc(-c4cc(O)cc5ccccc45)c(Cl)cc23)CC1 [Compound I-251, 1-(4-(6-chloro-7-(3-hydroxynaphthalen-1-yl)quinazolin-4-yl)piperazin-1-yl)prop-2-en-1-one] | ++++ (++++indicates binding activity greater than 75%) |

same assay, conditions: determined at 2 hrs

| SMILES | Binding % |
| --- | --- |
| C=CC(=O)N1CC(N2CCN(C(=O)CNc3cc(C4(C)CC4)c(Cl)cc3O)CC2)C1 [II-64, 1-(3-(4-(2-((4-Chloro-2-hydroxy-5-(1-methylcyclopropyl)phenyl)amino)acetyl)piperazin-1-yl)azetidin-1-yl)prop-2-en-1-one] | ++ (++indicates binding activity greater than 20%) |

same assay, conditions: determined at 24 hrs

| SMILES | Binding % |
| --- | --- |
| C=CC(=O)N1CC(N2CCN(C(=O)CNc3cc(C)c(Cl)cc3O)CC2)C1 [II-32, 1-(3-(4-(2-(4-chloro-2-hydroxy-5-methylphenylamino)-acetyl)piperazin-1-yl)azetidin-1-yl)prop-2-en-1-one] | ++++ (++++indicates binding activity greater than 50%) |
| C=CC(=O)N1CC(N2CCN(C(=O)CNc3cc(Br)c(Cl)cc3O)CC2)C1 [II-18, 1-(3-(4-(2-(5-bromo-4-chloro-2-hydroxyphenyl-amino)acetyl)piperazin-1-yl)azetidin-1-yl)prop-2-en-1-one] | ++++ (++++indicates binding activity greater than 50%) |
| CN(C)C/C=C/C(=O)N1CC(N2CCN(C(=O)CNc3cc(Cl)c(Cl)cc3O)CC2)C1 [II-20, (E)-1-(3-(4-((4,5-dichloro-2-hydroxyphenyl)-glycyl)piperazin-1-yl)azetidin-1-yl)-4-(dimethylamino)but-2-en-1-one] | ++ (++indicates binding activity greater than 15% and up to 25%) |
